Test results taken from patent US20260240851A1, “Treatment of Parkinson's Disease in a Patient Using a Glucocerebrosidase Activator” (BIAL - R&D Investments, S.A., priority 2023, published 2026).

Experiments:
[1] = test system: GluCer, GluSph and LacCer in plasma, PBMCs and CSF; experiment: LTI-291-002: glycolipid biomarkers; type: in vivo, human; settings: healthy subjects
Experimental: This study was a phase 1, randomized, double-blind, placebo-controlled, multiple ascending dose study of Compound A in 4 cohorts of middle-aged to elderly healthy participants (aged 52 to 75 years). […] A total of 39 healthy subjects were enrolled in 4 sequential cohorts. Subjects in each cohort received once-daily oral doses of 3 mg (n=7), 10 mg (n=8), 30 mg (n=8), or 60 mg (n=8) Compound A or placebo (n=8) for 14 days. Pharmacokinetic parameters were determined for each dose at Day 1, Day 7, and Day 14. Cerebrospinal fluid samples for Compound A concentrations were measured before the first dose and 4 hours after the last dose for each dose level. GluCer, glucosyl sphingosine (GluSph), and lactosyl-ceramide (LacCer) were measured in plasma, PBMCs, and CSF as biomarkers of pharmacological effects. Pharmacodynamic measurements consisted of battery of CNS (NeuroCart®) assessments including Saccadic Eye Movements, Smooth Pursuit Eye Movements, Adaptive Tracking, Body Sway, Visual Verbal Learning Test, and pharmaco-EEG.

[2] = LTI-291-003: safety and tolerability; type: in vivo, human
Description: This study was a Phase 1b, randomized, double-blind, placebo-controlled, multiple oral dose study of Compound A in 40 subjects (aged 40 to 80 years) with GBA-PD. Approximately 50% of the enrolled subjects had major (loss of 30%-50% total activity) mutations in GCase and 50% had polymorphism mutation (loss of 10%-20% of total activity) mutations in GCase. The objectives of this study were to investigate the safety, tolerability, and PK of multiple once-daily oral administration of Compound A and to explore the accompanying pharmacodynamic changes in subjects with GBA-PD with major and polymorphism mutations. Subjects received once-daily oral doses of 10 mg (n=10), 30 mg (n=10), or 60 mg (2×30 mg capsules) (n=10) Compound A or placebo (n=10) for 28 consecutive days.

[3] = test system: GluCer, GluSph and LacCer in PBMCs and plasma; experiment: LTI-291-004: glycolipid biomarkers; type: in vivo, human
Experimental: This study was a Phase 1B, randomized, double-blind, placebo-controlled, multiple oral dose study of Compound A in 14 subjects (aged 51 to 81 years) with GBA-PD. The objectives of this study were to investigate the safety, tolerability, and PK of multiple once-daily oral administration of Compound A and to explore the accompanying pharmacodynamic changes. Subjects received once-daily oral doses of 10 mg (n=6) or 60 mg (2×30 mg capsules) (n=6) Compound A or placebo (n=2) for 28 consecutive days. PK samples were measured once on Day 7 and Day 14 and 4 times after the last dose on Day 28. Plasma concentrations were summarized at each time point, and no PK parameters were estimated. The PD evaluations included fMRI measures; FDG-PET to determine the metabolic rate of glucose in specific regions of the brain; and functional outcome measures (MDS-UPDRS Part III and the MMSE). GluCer, GluSph, and LacCer and other sphingolipids were measured in PBMCs and plasma as biomarkers of pharmacological effect.

[4] = BIA 28-6156-106: safety and tolerability; type: in vivo, human
Experimental: This was a Phase 1, single-dose, mass balance recovery study of ^14C-Compound A in 1 cohort of healthy male subjects, aged 30 to 65 years. A total of 6 subjects received a single oral dose of 60 mg Compound A, containing not more than 3.7 MBq ^14C, under fasted conditions. Objectives included determining the routes and rates of elimination of ^14C-Compound A, identifying the structure of metabolites that account for more than 10% of circulating total radioactivity in plasma and total radioactive dose in urine and feces, exploring the PK of Compound A, evaluating the extent of distribution of TR into blood cells, and gathering additional safety and tolerability information for Compound A.

[5] = BIA 28-6156-110 DDI, rosuvastatin portion; type: in vivo, human; settings: after 6 days of dosing with 60 mg, rosuvastatin portion
Experimental: In Cohort 1, a single oral dose of 10 mg rosuvastatin was administered alone on Day 1. No drug was administered on Day 2. From Day 3 to Day 8, a single daily dose of 60 mg Compound A was administered.

[6] = BIA 28-6156-110 DDI, metformin portion; type: in vivo, human; settings: after 6 days of dosing with 60 mg, metformin portion
Experimental: In Cohort 2, a single oral dose 500 mg metformin was administered alone on Day 1. From Day 2 to Day 7, a single daily dose of 60 mg Compound A was administered.

clinical = settings: both, human, plasma, 60 mg; for AUC(0-t): Madopar portion, geometric mean
Experimental: This was a Phase 1, non-randomized, open-label, 2-cohort, cross-over, DDI study in healthy male and female subjects.
In Cohort 2, a single oral dose 100 mg/25 mg levodopa-benserazide (Madopar®) IR was administered alone on Day 1.

[7] = BIA 28-6156-105: safety and tolerability

Question: With `CCCCCO[C@H]1CC[C@H](NC(=O)c2cnn3c(C)cc(C)nc23)CC1` [Compound A, 5,7-dimethyl-N-((1S*,4S)-4-(pentyloxy)cyclohexyl)pyrazolo[1,5-a]pyrimidine-3-carboxamide] as the compound, how does the “consistent pharmacodynamic effect on glycolipids” value ([1]; 14 days of dosing) read?
Answer: not observed

Question: And the “GluCer and LacCer variables in CSF” value ([1]; 14 days)?
Answer: sporadic, statistically significant decreases

Question: And the “GluCer and LacCer variables in plasma and PBMCs” value ([1]; 14 days)?
Answer: Sporadic, statistically significant increases

Question: What about the “deaths, SAEs, severe AEs, discontinuations due to AEs” value ([2]; 10-60 mg daily for 28 days, GBA-PD) of the same compound?
Answer: No deaths, other SAEs, severe AEs, or discontinuations due to AEs

Question: And the “vital signs, laboratory safety assessments, ECG parameters” value ([2]; 28 days)?
Answer: no clinically significant safety observations

Question: What about the “AE back pain, patients” value ([2]; all Compound A groups) of the same compound?
Answer: 13.3%

Question: And the “AE fatigue, patients” value ([2]; all Compound A groups)?
Answer: 16.7%

Question: And the “AE headache, subjects” value ([2]; all Compound A groups)?
Answer: 13.3%

Question: What about the “AE worsening of Parkinson's disease symptoms, subjects” value ([2]; all Compound A groups) of the same compound?
Answer: 13.3%

Question: What about the PBMC glycolipid levels ([3]; 10 or 60 mg daily for 28 days, GBA-PD) of the same compound?
Answer: Significant changes

Question: And the “Plasma LacCer” value ([3]; upon Compound A treatment)?
Answer: tended to decrease

Question: What about the “plasma GluCer or GluSph” value ([3]; upon Compound A treatment) of the same compound?
Answer: no effect was observed

Question: And the “vital signs, laboratory safety assessments, ECG parameters” value ([4]; in vivo)?
Answer: no clinically significant safety observations

Question: What about the “relatedness of AEs” value ([4]; investigator assessment) of the same compound?
Answer: unrelated to the IMP

Question: And the “deaths, SAEs, severe AEs, discontinuations due to AEs” value ([4]; single 60 mg dose)?
Answer: No deaths, other SAEs, severe AEs, or discontinuations due to AEs

Question: And the “subjects reporting mild headaches” value ([4]; single 60 mg dose)?
Answer: 33.3%

Question: And the “subjects reporting moderate tinea cruris” value ([4]; single 60 mg dose)?
Answer: 16.7%

Question: What about the “subjects reporting AEs” value ([4]; single 60 mg dose, 6 subjects) of the same compound?
Answer: 50.0%

Question: What about the “steady state concentrations of Compound A” value [5] of the same compound?
Answer: appeared not to have been reached

Question: And the “steady state concentrations of Compound A” value [6]?
Answer: appeared not to have been reached

Question: And the Cmax (clinical)?
Answer: 2030 ng/mL

Question: And the Tmax (clinical)?
Answer: 2 h

Question: And the AUC(0-t) (clinical; AUC0-24, 60 mg Compound A alone)?
Answer: 24000 ng·h/mL

Question: And the AUC(0-t) (clinical; AUC0-t, 60 mg Compound A alone)?
Answer: 22800 ng·h/mL

Question: What about the “laboratory values considered related to Compound A” value ([7]; after 150 mg Compound A) of the same compound?
Answer: increased ALT and increased GGT in 1 subject

Question: What about the “deaths or other SAEs” value ([7]; in vivo) of the same compound?
Answer: No deaths or other SAEs

Question: What about the “TEAEs considered related to Compound A 150 mg” value ([7]; reported in 2 subjects) of the same compound?
Answer: 4 of 90 TEAEs
